Data: patent US20150299648A1, “IMPROVED CULTIVATION MEDIA AND PROCESS FOR IMPROVED PROTEIN PRODUCTION BY PICHIA STRAINS” (priority 2012, published 2015)
“Also recorded” adds a separate entry of the source.

Assays:
Type in all cases: cell-based, Pichia pastoris
[1] = test system: P. pastoris YGLY 21058 strain; assay: Fermentability of sorbitol and maltitol determined by HPLC; conditions: BSGY; maltitol 50 g/L; methanol induction phase
Method: The P. pastoris YGLY 21058 strain was cultivated in 1 L bioreactor and 50 g/L of maltitol was mixed in BSGY medium. The samples were taken at the beginning of fermentation, at the end of glycerol fed-batch before adding maltitol, and two different time-points in methanol induction phase, as shown in FIG. 3. The supernatant was separated by the centrifugation at 13,000 rpm for 1 minutes using micro-centrifuge. The samples properly diluted with distilled water were filtered using 0.2 μm-filter and the residual concentrations of sorbitol and maltitol were determined by HPLC using AMINEX HPX-87H column. The residence times (RTs) for sorbitol and maltitol were 11.5 and 9.3 min respectively. The data were shown in FIG. 3 as two independent runs of cultivation.

[2] = test system: P. pastoris YGLY21058 strain producing glycosylated insulin precursor (GIP); assay: Screening of sugars and sugar alcohols as osmoprotectants in fed-batch cultivation
Method: The P. pastoris YGLY21058 strain was cultivated in 1 L glass bioreactors (DASGIP, Germany). For fermentation in 1 L bioreactor, a vial (1 mL) of RCB (Research Cell Bank) was inoculated into 200 mL of Seed medium in 1 L-baffled flask. The culture incubated at 24° C., while shaking on an orbital shaker at 180 rpm for 48±4 h. The bioreactor was inoculated with a 10% volumetric ratio of seed to initial BSGY medium. Cultivation conditions were following: temperature set at 24±0.5° C., pH controlled at 6.5±0.1 with 30% ammonium hydroxide, dissolved oxygen was maintained at 20% of saturation by cascading agitation rate on the addition of pure oxygen to the fixed airflow rate of 0.7 vvm. After depletion of the initial glycerol (4%), a 50% glycerol solution containing 12.5 mL/L of PTM1 salts (6.5 g FeSO4.7H2O, 2.0 g ZnCl2, 0.6 g CuSO4.5H2O, 3.0 g MnSO4.7H2O, 0.5 g CoCl2.6H2O, 0.2 g NaMoO4.2H2O, 0.2 g biotin, 80 mg NaI, 20 mg H3BO4 per L) was fed constantly at an initial rate of 0.08 h^−1 for 8 h. Induction was initiated after a 30 min starvation phase when methanol was fed. Methanol was fed constantly starting at 1.33 g/L/h under methanol limited condition. Agitation speed was changed from cascade mode with agitation speed and pure oxygen.
For comparisons, each sugar or sugar alcohol was added at 50 g/L in initial batch medium of BSGY. In case of control without sugar supplementation (BSGY medium only), glycosylated insulin precursor (GIP) was detectable at 58 h of induction, but not detected at 80 h of induction due to most likely proteolytic degradation caused by heavy cell lysis (Lanes 1 and 2 of FIG. 2 A).

[3] = test system: P. pastoris strain (YGLY27893) which produces an antibody Fc-fragment; assay: Effect of maltitol with or without sorbitol on cell robustness; conditions: BSGY medium with maltitol 50 g/L
Method: Using a P. pastoris strain (YGLY27893) which produces an antibody Fc-fragment, the osmoprotective effect of combining sorbitol and maltitol was tested as follows: sorbitol(−) maltitol(−); sorbito(+) maltitol(−); […] maltito(+). The concentrations of sorbitol and maltitol were 18 g/L and 50 g/L respectivetly. (Note: Sorbitol(+) maltito(−) is identical to BSGY medium).
The cell growth was expressed as [Cell (t)]/[Cell (0)]×100(%), here, [Cell (t)] is the wet cell weight at t (h) of induction and [Cell (0)] is the wet cell weight at 0 (h) of induction, because the cell density at the beginning of induction in each case was different due to absence or presence of sorbitol as a fermentable sugar. The cell was heavily lysed around 80 h of induction in BSGY medium without maltitol, whereas the cell was continuously grown for 150 h of induction in BSGY medium with maltitol (FIG. 4). I re-draw the FIG. 4 as shown in the last page (p 47 after FIG. 5).

Compound: OC[C@@H](O)[C@@H](O[C@H]1O[C@H](CO)[C@@H](O)[C@H](O)[C@H]1O)[C@H](O)[C@@H](O)CO [Maltitol, 4-O-α-glucopyranosyl-D-sorbitol]
- Consumption / fermentability in fed-batch fermentation (residual concentration by HPLC) [1]: not consumed; also recorded: non-fermentable
- Intact insulin precursor produced ([2]; 2% maltitol, 83 h of post-induction): intact protein was produced
- Index of cell lysis (double stranded DNA released into culture medium) ([2]; 50 g/L in initial batch BSGY, 80 h of induction): < 1 mg DNA/L
- Intact GIP molecule after 80 h-induction (SDS-PAGE) ([2]; 50 g/L in initial batch medium of BSGY): intact GIP molecule was maintained
- Intact GIP produced ([2]; 80 h of induction): 100 mg/L
- Robustness of Pichia production strains ([2]; methanol induction phase of cultivation): significantly improved the robustness
- Volumetric productivity of GIP/insulin relative to control ([2]; vs control without supplementation): 2 fold
- Time of continuous cell growth in induction [3]: 150 h
